Measured values published in patent US9856507B2, “Method for screening food ingredients and food compositions” (JAPANESE FOUNDATION FOR CANCER RESEARCH, priority 2013, dated 2018).

Key:
liver cancer [1] = assay: Liver cancer induction by oral deoxycholic acid in mice fed high-fat diets and given antibiotic cocktail; assay type: in vivo; details: 40 μg/g body weight orally three times a week; HFD + antibiotic cocktail; n=3
Protocol: From the 13th week after the start of the raising, the antibiotic cocktail was administered to mice fed high-fat diets, which were then further raised. To these mice, 40 μg/g body weight of deoxycholic acid (DCA) or only a vehicle as a control was orally administered three times a week (FIG. 6A). […] The mice given deoxycholic acid developed a large number of liver tumors (indicated by Δ in the diagram), whereas cancer development was rarely seen in the control mouse group given only the vehicle. […] The cancer was rarely developed in the control mouse group given only the vehicle, and even if the cancer was developed, its tumor size was small. On the other hand, the deoxycholic acid administration group had multiple cancer (25 or more tumors per individual), and also, its size was large.

gut microbiota = assay: Gut microbiota analysis by PCR of 16S rRNA gene from feces; assay type: in vivo, mice
Protocol: Next, alteration in gut microbiota caused by antibiotic administration conducted in Example 3 will be shown. In the experimental schedule shown in FIG. 4A, 3 groups were used: a group fed normal diets, a group fed high-fat diets, and a group fed high-fat diets and also given vancomycin. The gut microbiota was analyzed.
The gut microbiota was identified by PCR analysis (Non Patent Literatures 11 and 12). Specifically, DNA was extracted from the feces and purified. The gene encoding 16S rRNA in many types of bacteria was amplified by PCR using universal primers. The V1-V4 hypervariable regions were further amplified, followed by identification.

liver cancer [2] = assay: Liver cancer development in DMBA-treated mice fed high-fat diets, antibiotic in drinking water; assay type: in vivo; details: dissected at 30th week; antibiotic from 13 weeks old; compared with control
Description: An acetone solution containing 0.5% of the carcinogenic substance DMBA (7,12-dimethylbenz[a]anthracene) was applied once to the backs of wild-type (C57BL/6) neonatal mice. The neonatal mice were raised together with their mother mouse by feeding with normal diets (ND) or high-fat diet (HFD) until 4 weeks old. The high-fat diets used were D12492 (Rodent Diet with 60% kcal % Fat; Research Diets, Inc., USA). The neonatal mice were weaned at 4 weeks old and subsequently raised with normal diets or high-fat diet. At 30 weeks old, their livers and lungs were excised, and the presence or absence of cancer development was analyzed. The average body weight of the mice at the time of dissection was 33 g for the mice fed normal diets and 51 g for the mice fed high-fat diets. The mice fed high-fat diets had approximately 1.5 times the body weights of the mice fed normal diets.
DMBA was applied to wild-type neonatal mice, followed by high-fat diet feeding. From 13 weeks old, an antibiotic cocktail (4Abx, antibiotic cocktail administration group) or vancomycin (VCM, vancomycin administration group) mixed with drinking water was administered to the mice. At the 30th week after the start of the raising, their livers were excised, and liver cancer development was analyzed. […]
The mice of each group were dissected at the 30th week, and liver cancer development was analyzed (FIGS. 4C and 4D).

intestinal bacteria = assay: Level of gene encoding intestinal bacterial 16S rRNA after antibiotic administration; assay type: in vivo, mice; details: 17 weeks after antibiotic administration, 30 weeks after birth; high-fat diet, drinking water
Protocol: DMBA was applied to wild-type neonatal mice, followed by high-fat diet feeding. From 13 weeks old, an antibiotic cocktail (4Abx, antibiotic cocktail administration group) or vancomycin (VCM, vancomycin administration group) mixed with drinking water was administered to the mice. At the 30th week after the start of the raising, their livers were excised, and liver cancer development was analyzed. On the other hand, the raising of a control group was continued in the same way as the aforementioned raising up to the 13th week. The antibiotic cocktail contained ampicillin (1 g/l), neomycin (1 g/l), metronidazole (1 g/l), and vancomycin (500 mg/l). Also, in the case of administering vancomycin alone, 500 mg/l was administered.

SMILES	tumor size (liver) (liver cancer [1])	tumors per individual (liver) (liver cancer [1])	Gram-negative microbiota, average (gut microbiota; HFD+VCM group, on average (FIG. 5)) [%]	cluster XI of the genus Clostridium (gut microbiota; high-fat diet plus vancomycin group, n=2) [%]	liver cancer development (tumor number and size) (liver cancer [2])	amount of intestinal bacteria (level of gene encoding 16S rRNA) (intestinal bacteria)
C[C@H](CCC(=O)O)[C@H]1CC[C@H]2[C@@H]3CC[C@@H]4C[C@H](O)CC[C@]4(C)[C@H]3C[C@H](O)[C@]12C [deoxycholic acid]	large	≥ 25				
CN[C@H](CC(C)C)C(=O)N[C@H]1C(=O)N[C@@H](CC(N)=O)C(=O)N[C@H]2C(=O)N[C@H]3C(=O)N[C@H](C(=O)N[C@H](C(=O)O)c4cc(O)cc(O)c4-c4cc3ccc4O)[C@H](O)c3ccc(c(Cl)c3)Oc3cc2cc(c3O[C@@H]2O[C@H](CO)[C@@H](O)[C@H](O)[C@H]2O[C@H]2C[C@](C)(N)[C@H](O)[C@H](C)O2)Oc2ccc(cc2Cl)[C@H]1O [vancomycin]			99	0	developed no liver cancer or developed liver cancer with a smaller tumor number and a smaller size as compared with the control	decreased into a very small level
